Measurements published in patent US12630498B2 (Genzyme Corporation, priority 2019, dated 2026).

How the values were obtained:
[1] = target: T1, CFTR-mediated transepithelial chloride transport in primary human bronchial epithelial cells from a ΔF508 homozygous CF donor (Homo sapiens, UniProt P13569, DEL508-508); assay: TECC24 recording of CFTR-mediated transepithelial chloride transport in CF-HBE cells (AUC fold over DMSO); assay type: cell-based; settings: test agent 10 μM, 48 hours incubation, AUC of forskolin-stimulated IEQ relative to DMSO
T1 construct: Primary human bronchial epithelial cells from a ΔF508 homozygous CF donor; host or cells: primary CF-HBE cells, ΔF508 homozygous donor
T1 sequence (P13569 with tags, fused parts or gaps DEL508-508): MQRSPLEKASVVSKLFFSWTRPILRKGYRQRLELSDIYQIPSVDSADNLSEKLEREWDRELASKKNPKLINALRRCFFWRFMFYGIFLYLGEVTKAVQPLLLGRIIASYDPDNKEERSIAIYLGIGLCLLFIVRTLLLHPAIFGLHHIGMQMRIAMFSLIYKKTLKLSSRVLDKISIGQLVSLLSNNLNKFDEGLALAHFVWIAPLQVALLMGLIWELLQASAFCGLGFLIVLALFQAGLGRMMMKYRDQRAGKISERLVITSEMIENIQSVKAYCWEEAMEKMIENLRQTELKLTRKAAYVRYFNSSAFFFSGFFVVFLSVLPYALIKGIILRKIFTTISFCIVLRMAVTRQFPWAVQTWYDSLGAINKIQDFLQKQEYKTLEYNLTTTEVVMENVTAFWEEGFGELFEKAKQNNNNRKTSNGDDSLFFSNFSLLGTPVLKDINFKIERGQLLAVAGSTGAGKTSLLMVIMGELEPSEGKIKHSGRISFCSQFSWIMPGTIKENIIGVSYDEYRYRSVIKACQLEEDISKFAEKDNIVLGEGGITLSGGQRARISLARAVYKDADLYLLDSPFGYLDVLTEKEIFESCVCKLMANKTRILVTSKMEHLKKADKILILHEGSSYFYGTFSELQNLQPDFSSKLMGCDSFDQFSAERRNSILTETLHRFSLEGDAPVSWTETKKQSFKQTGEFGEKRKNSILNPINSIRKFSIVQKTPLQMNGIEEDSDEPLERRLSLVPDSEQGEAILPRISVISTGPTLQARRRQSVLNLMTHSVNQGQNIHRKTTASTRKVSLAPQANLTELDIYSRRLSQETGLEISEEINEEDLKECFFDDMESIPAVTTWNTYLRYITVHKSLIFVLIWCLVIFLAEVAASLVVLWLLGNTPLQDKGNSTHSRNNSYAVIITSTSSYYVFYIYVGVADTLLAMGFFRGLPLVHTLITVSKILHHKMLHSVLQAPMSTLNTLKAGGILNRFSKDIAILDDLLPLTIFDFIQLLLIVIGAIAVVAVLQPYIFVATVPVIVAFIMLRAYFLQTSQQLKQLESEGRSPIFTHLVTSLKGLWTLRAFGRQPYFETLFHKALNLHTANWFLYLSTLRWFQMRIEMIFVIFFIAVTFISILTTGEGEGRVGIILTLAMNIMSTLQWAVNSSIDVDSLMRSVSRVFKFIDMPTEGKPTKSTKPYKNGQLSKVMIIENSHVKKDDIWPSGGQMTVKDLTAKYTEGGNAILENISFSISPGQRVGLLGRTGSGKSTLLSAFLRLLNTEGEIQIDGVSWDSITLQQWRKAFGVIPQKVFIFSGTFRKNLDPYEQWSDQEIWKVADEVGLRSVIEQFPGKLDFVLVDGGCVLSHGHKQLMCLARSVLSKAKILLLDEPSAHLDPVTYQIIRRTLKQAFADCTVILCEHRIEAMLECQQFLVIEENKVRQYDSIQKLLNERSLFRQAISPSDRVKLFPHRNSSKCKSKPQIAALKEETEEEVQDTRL
Protocol: Example 316: TECC24 AUC Fold Over DMSO @ 10 uM
The effects of a test agent on CFTR-mediated transepithelial chloride transport was measured using TECC24 recording analysis. Test agents were solubilized in DMSO. Solubilized test agents were mixed with incubation medium containing DMEM/F12, Ultroser G (2%; Crescent Chemical, catalog #67042), Hyclone Fetal Clone II (2%; GE Healthcare, catalog #SH30066.02), bovine brain extract (0.25%; Lonza, catalog #CC-4098), insulin (2.5 μg/mL), IL-13 (10 ng/mL), hydrocortisone (20 nM), transferrin (2.5 μg/mL), triiodothyronine (500 nM), ethanolamine (250 nM), epinephrine (1.5 μM), phosphoethanolamine (250 nM), and retinoic acid (10 nM). Primary human bronchial epithelial cells from a ΔF508 homozygous CF donor (CF-HBE cells; from University of North Carolina Cystic Fibrosis Tissue Procurement Center), grown on Transwell HTS 24-well cell culture inserts (Costar, catalog #3378), were exposed to test agents or controls dissolved in incubation medium. The CF-HBE cells were cultured at 36.5° C. for 48 hours before TECC24 recordings were performed in the presence or absence of test agent, a positive control or vehicle (DMSO).
Following incubation, the transwell cell culture inserts containing the test agent or control-treated CF-HBE cells were loaded onto a TECC24 apparatus (TECC v7 or MTECC v2; EP Design) to record the transepithelial voltage (VT) and resistance (TEER) using 4 AgCl electrodes per well configured in current-clamp mode. The apical and basolateral bath solutions both contained (in mM) 140 NaCl, 5 KCl, 2 CaCl2), 1 MgCl2, 10 Hepes, and 10 glucose (adjusted to pH 7.4 with NaOH). To inhibit basal Na+ absorption, the ENaC inhibitor benzamil (10 μM) was added to the bath. Then, the adenylate cyclase activator, forskolin (10 μM), was added to the bath to activate CFTR. The forskolin-stimulated Cl-transport was halted by addition of CFTR inhibitor-172 (20 μM) to the bath at the end of the experiment to confirm specificity. VT and TEER recordings were digitally acquired at routine intervals using TECC or MTECC software (EP Design). VT and TEER were transformed into equivalent transepithelial Cl-current (IEQ), and the Area Under the Curve (AUC) of the IEQ time course between forskolin and CFTR inhibitor-172 addition was generated using Excel (Microsoft). Efficacy is expressed as the ratio of the test agent AUC divided by vehicle AUC. EC50s based on AUC are generated using the non-linear regression log(agonist) vs. response function in Prism software (GraphPad) with Hill Slope fixed=1.
If a test agent increased the AUC of the forskolin-stimulated IEQ relative to vehicle in CF-HBE cells, and this increase was inhibited by CFTR inhibitor-172, then the test agent was considered a CFTR corrector.

[2] = target: T2, human Cystic Fibrosis Transmembrane Conductance Regulator (CFTR) harboring the ΔF508 mutation (Homo sapiens, UniProt P13569, DEL508-508); assay: H441 cell ΔF508-CFTR-HRP cell surface assay (Emax and EC50); assay type: cell-based; settings: for Emax: NCI-H441, NA = Not active
T2 construct: expressed in transfected cells; host or cells: H441 carcinoma line (G418-selected)
T2 sequence (P13569 with tags, fused parts or gaps DEL508-508): as above
Outline: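 H441 and 41o- bronchial epithelial cells expressing ΔF508-CFTR with an extracellular-loop-4 HRP tag were treated with a 15-point compound series (24.5–0.001 μM) for two nights, H441 at 27° C, 41o- at 37° C with 0.0005 mg/ml doxycycline. Surface HRP luminescence read; % of maximum VX809 signal and EC50 derived.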

Compound | TECC24 AUC fold over DMSO @10 μM [1] | EC50 [2] | Emax [2]
CC(C)(c1ccccc1)[C@H](NC(=O)c1ccc2cc(F)ccc2c1OCc1ccc(SC(F)(F)F)cc1)C(=O)O [Example 10, (S)-2-(6-fluoro-1-((4-((trifluoromethyl)thio)benzyl)oxy)-2-naphthamido)-3-methyl-3-phenylbutanoic Acid] | C (“C” refers to AUC @10 uM <4) | – | –
O=C(N[C@@H](Cc1ccccc1)C(=O)O)c1ccc2ccccc2c1OCc1ccc(F)cc1 [Example 94] | C (“C” refers to AUC @10 uM <4) | – | –
CC(C)(C)[C@H](NC(=O)c1ccc2ccccc2c1OCc1ccc(C(F)(F)F)cn1)C(=O)O [Example 2, (S)-3,3-dimethyl-2-(1-((5-(trifluoromethyl)pyridin-2-yl)methoxy)-2-naphthamido)butanoic Acid] | – | 4.8 µM | 151%
CC(OCc1ccccc1)[C@H](NC(=O)c1ccc2cc(F)ccc2c1OCc1ccc(OC(F)(F)F)cc1)C(=O)O (stereo in doubt) [Example 192, O-benzyl-N-(6-fluoro-1-((4-(trifluoromethoxy)benzyl)oxy)-2-naphthoyl)-L-allothreonine] | – | – | 10.6%
O=C(N[C@@H](Cc1ccc(C(F)(F)F)cc1)C(=O)O)c1ccc2ccccc2c1OCc1nc2ccccc2s1 [Example 213, (S)-2-(1-(benzo[d]thiazol-2-ylmethoxy)-2-naphthamido)-3-(4-(trifluoromethyl)phenyl)propanoic Acid] | – | 13.1 µM | 87.2%
CC(C)(C)C#CCOc1c(C(=O)N[C@H](C(=O)O)C(C)(C)C)ccc2cc(F)ccc12 [Example 266, (2S)-2-[[1-(4,4-dimethylpent-2-ynoxy)-6-fluoro-naphthalene-2-carbonyl]amino]-3,3-dimethyl-butanoic Acid] | – | 5.4 µM | 149%
O=C(N[C@@H](Cc1ccncc1)C(=O)O)c1ccc2ccccc2c1OCc1ccc(C(F)(F)F)cc1 [Example 103, (S)-3-(pyridin-4-yl)-2-(1-((4-(trifluoromethyl)benzyl)oxy)-2-naphthamido)propanoic Acid] | – | – | 22.4%
CC1(C(NC(=O)c2ccc3ccccc3c2OC[C@H]2CC[C@@H](C(F)(F)F)CC2)C(=O)O)CCCCC1 (stereo partly shown) [Example 39, 2-(1-methylcyclohexyl)-2-(1-(((1s,4s)-4-(trifluoromethyl)cyclohexyl)methoxy)-2-naphthamido)acetic Acid] | – | 15.4 µM | 60.7%
O=C(N[C@@H](Cc1ccccc1)C(=O)O)c1ccc2ccccc2c1OCc1ccc([N+](=O)[O-])cc1 [Example 91, (1-((4-nitrobenzyl)oxy)-2-naphthoyl)-L-phenylalanine] | – | 16.4 µM | 44.3%
O=C(N[C@@H](Cc1ccccc1)C(=O)O)c1ccc2ccccc2c1OCc1cccc2c1OC(F)(F)O2 [Example 102, (1-((2,2-difluorobenzo[d][1,3]dioxol-4-yl)methoxy)-2-naphthoyl)-L-phenylalanine] | – | 8 µM | 33.7%
CC(C)(SC1CCCC1)[C@H](NC(=O)c1ccc2ccccc2c1OCc1ccc(S(C)(=O)=O)cc1)C(=O)O [Example 171] | – | – | 16.4%
O=C(N[C@@H](Cc1ccc(C(F)(F)F)cc1)C(=O)O)c1ccc2ccccc2c1OCc1ccc(OC(F)(F)F)cc1 [Example 190, (S)-2-(1-((4-(trifluoromethoxy)benzyl)oxy)-2-naphthamido)-3-(4-(trifluoromethyl)phenyl)propanoic Acid] | – | 7 µM | 17.9%
C[C@@H](OCc1ccccc1)C(NC(=O)c1ccc2ccccc2c1OCc1ccc(C(F)(F)F)cc1)C(=O)O (stereo partly drawn) [Example 144, (3R)-3-(benzyloxy)-2-(1-((4-(trifluoromethyl)benzyl)oxy)-2-naphthamido)butanoic Acid] | – | 4.5 µM | 140%
CC(Oc1c(C(=O)N[C@@H](Cc2ccccc2)C(=O)O)ccc2ccccc12)c1ccc(Br)cc1 (stereo partly drawn) [Example 123, (1-(1-(4-bromophenyl)ethoxy)-2-naphthoyl)-L-phenylalanine] | – | – | 4%
NC12CCC(C(NC(=O)c3ccc4cc(F)ccc4c3OCc3ccc(OC(F)(F)F)cc3)C(=O)O)(CC1)CC2 (stereo not shown) [Example 184, 2-(4-aminobicyclo[2.2.2]octan-1-yl)-2-(6-fluoro-1-((4-(trifluoromethoxy)benzyl)oxy)-2-naphthamido)acetic Acid] | – | – | 11.7%
CC(C)C#CCOc1c(C(=O)N[C@H](C(=O)O)C(C)(C)C)ccc2ccccc12 [Example 235, (2S)-3,3-dimethyl-2-[[1-(4-methylpent-2-ynoxy)naphthalene-2-carbonyl]amino]butanoic Acid] | – | 15.2 µM | 211%

The remaining lines, values ahead:

TECC24 AUC fold over DMSO @10 μM [1] | EC50 [2] | Emax [2] | Compound
– | 2 µM | 57.5% | CC1([C@H](NC(=O)c2ccc3cc(F)ccc3c2OCc2ccc(OC(F)(F)F)cc2)C(=O)O)CC1 [Example 30, (S)-2-(6-fluoro-1-((4-(trifluoromethoxy)benzyl)oxy)-2-naphthamido)-2-(1-methylcyclopropyl)acetic Acid]
– | 0.7 µM | 153% | CC1([C@H](NC(=O)c2ccc3ccc(C(F)(F)F)cc3c2OCc2ccc(C(F)(F)F)cc2)C(=O)O)CC1 [compound 298, (S)-2-(1-methylcyclopropyl)-2-(7-(trifluoromethyl)-1-((4-(trifluoromethyl)benzyl)oxy)-2-naphthamido)acetic Acid]
– | 2.5 µM | 9.1% | CC(C)(C)[C@H](NC(=O)c1ccc2ccccc2c1OCc1ccc2c(c1)OCO2)C(=O)O [Example 79, (S)-2-(1-(benzo[d][1,3]dioxol-5-ylmethoxy)-2-naphthamido)-3,3-dimethylbutanoic Acid]
– | 1.6 µM | 90.3% | CC1(C(NC(=O)c2ccc3cc(F)ccc3c2OCc2ccc(C(F)(F)F)cc2)C(=O)O)CC1 (stereo not shown) [Example 60, 2-(6-fluoro-1-((4-(trifluoromethyl)benzyl)oxy)-2-naphthamido)-2-(1-methylcyclopropyl)acetic Acid]
– | 2.1 µM | 12.8% | CC(C)(C)[C@H](NC(=O)c1ccc2ccccc2c1OCc1ccc(S(C)(=O)=O)cc1)C(=O)O [Example 66, (S)-3,3-dimethyl-2-(1-((4-(methylsulfonyl)benzyl)oxy)-2-naphthamido)butanoic Acid]
– | 2.7 µM | 46.6% | CC(C)(C)C[C@H](NC(=O)c1ccc2cc(N)ccc2c1OCc1ccc(C(F)(F)F)cc1)C(=O)O [Example 186, (S)-2-(6-amino-1-((4-(trifluoromethyl)benzyl)oxy)-2-naphthamido)-4,4-dimethylpentanoic Acid]
– | 0.1 µM | 339% | CCC(C)(C)[C@H](NC(=O)c1ccc2c(F)cc(C)cc2c1OCc1ccc(OC(F)(F)F)cc1)C(=O)O [Example 273, (2S)-2-[[5-fluoro-7-methyl-1-[[4-(trifluoromethoxy)phenyl]methoxy]naphthalene-2-carbonyl]amino]-3,3-dimethyl-pentanoic Acid]
– | 0.2 µM | 219% | CC(C)(C)[C@H](NC(=O)c1ccc2ccc(C(F)(F)F)cc2c1OCc1ccc(OC(F)(F)F)cc1)C(=O)O [compound 292, (S)-3,3-dimethyl-2-(1-((4-(trifluoromethoxy)benzyl)oxy)-7-(trifluoromethyl)-2-naphthamido)butanoic Acid]
– | 0.3 µM | 327% | CC(C)(C)[C@H](NC(=O)c1ccc2ccc(C(F)(F)F)cc2c1OCc1ccc(C(F)(F)F)cc1)C(=O)O [compound 293, (S)-3,3-dimethyl-2-(7-(trifluoromethyl)-1-((4-(trifluoromethyl)benzyl)oxy)-2-naphthamido)butanoic Acid]
